These results are taken from article PMC3475186 (Cell, 2012).

This test concerns the target hTPC2 (TPC2; TPCN2; hTPC2-EGFP) (Homo sapiens, UniProt Q8NHX9). Briefly: whole-endolysosome patch clamp. The class given is cell-based.

hTPC2 (TPC2; TPCN2; hTPC2-EGFP), sequence (Q8NHX9 whole entry): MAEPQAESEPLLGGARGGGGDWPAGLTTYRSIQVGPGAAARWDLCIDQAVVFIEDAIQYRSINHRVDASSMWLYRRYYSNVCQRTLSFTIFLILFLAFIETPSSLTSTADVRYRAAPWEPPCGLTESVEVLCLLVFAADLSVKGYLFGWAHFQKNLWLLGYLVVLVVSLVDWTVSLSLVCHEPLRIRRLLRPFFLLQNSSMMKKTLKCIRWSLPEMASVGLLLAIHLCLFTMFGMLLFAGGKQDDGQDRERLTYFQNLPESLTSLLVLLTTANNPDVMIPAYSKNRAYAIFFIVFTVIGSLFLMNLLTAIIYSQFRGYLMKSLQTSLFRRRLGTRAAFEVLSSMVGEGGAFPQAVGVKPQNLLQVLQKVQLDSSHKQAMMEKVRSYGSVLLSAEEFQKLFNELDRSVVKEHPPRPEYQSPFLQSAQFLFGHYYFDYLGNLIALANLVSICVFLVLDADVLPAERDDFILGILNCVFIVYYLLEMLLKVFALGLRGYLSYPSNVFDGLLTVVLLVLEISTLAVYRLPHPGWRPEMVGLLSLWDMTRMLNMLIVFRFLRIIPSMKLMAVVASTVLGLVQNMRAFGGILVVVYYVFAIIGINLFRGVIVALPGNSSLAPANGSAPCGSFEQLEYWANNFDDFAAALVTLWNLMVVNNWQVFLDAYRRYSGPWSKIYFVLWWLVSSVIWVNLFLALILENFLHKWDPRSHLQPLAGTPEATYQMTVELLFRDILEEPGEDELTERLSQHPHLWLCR

The compound `CCCCCCCC(=O)OC[C@H](COP(=O)(O)O[C@@H]1[C@H](O)[C@H](OP(=O)(O)O)[C@@H](O)[C@H](OP(=O)(O)O)[C@H]1O)OC(=O)CCCCCCC` [diC8 PI(3,5)P2] registered an EC50 of 390 ± 94 nM.
